According to PubChem BioAssay (NCI):
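Values below derive from 48-hour exposures of cells grown in 96-well plates, with endpoints linearly interpolated between the two concentrations bracketing the appropriate inhibition level. Definition used: TGI = concentration required for complete inhibition of growth.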

Tests used:
Experiment in all cases: DTP human tumour cell line panel, 48 h
[1] = test system: DMS 114 small cell lung
[2] = test system: K-562 leukemia
[3] = test system: TK-10 renal
[4] = test system: SNB-78 CNS
[5] = test system: SK-OV-3 ovarian
[6] = test system: SK-MEL-5 melanoma
[7] = test system: HCT-116 colon
[8] = test system: LXFL 529 NSCLC
[9] = test system: SF-539 CNS
[10] = test system: SK-MEL-2 melanoma
[11] = test system: IGROV1 ovarian
[12] = test system: SF-268 CNS
[13] = test system: COLO 205 colon
[14] = test system: U251 CNS
[15] = test system: CCRF-CEM leukemia
[16] = test system: SK-MEL-28 melanoma
[17] = test system: EKVX NSCLC
[18] = test system: ACHN renal
[19] = test system: SNB-19 CNS
[20] = test system: 786-0 renal
[21] = test system: A498 renal
[22] = test system: RPMI-8226 leukemia
[23] = test system: UO-31 renal
[24] = test system: KM12 colon
[25] = test system: CAKI-1 renal
[26] = test system: M19-MEL melanoma
[27] = test system: HCT-15 colon
[28] = test system: HT29 colon
[29] = test system: NCI-H522 lung
[30] = test system: SF-295 CNS
[31] = test system: OVCAR-5 ovarian
[32] = test system: MOLT-4 leukemia
[33] = test system: SW-620 colon
[34] = test system: A549 NSCLC
[35] = test system: SNB-75 CNS
[36] = test system: LOX IMVI melanoma
[37] = test system: OVCAR-4 ovarian
[38] = test system: XF 498 CNS
[39] = test system: OVCAR-8 ovarian
[40] = test system: NCI-H460 lung
[41] = test system: HOP-92 NSCLC
[42] = test system: KM20L2 colon
[43] = test system: NCI-H226 lung
[44] = test system: HCC-2998 colon
[45] = test system: UACC-62 melanoma
[46] = test system: HL-60(TB) leukemia
[47] = test system: M14 melanoma
[48] = test system: SN12C renal
[49] = test system: UACC-257 melanoma
[50] = test system: DMS 273 small cell lung
[51] = test system: SR leukemia
[52] = test system: RXF 393 renal
[53] = test system: NCI-H23 lung
[54] = test system: HOP-62 NSCLC
[55] = test system: MCF7 breast
[56] = test system: MDA-N
[57] = test system: DU-145 prostate
[58] = test system: MDA-MB-435
[59] = test system: MALME-3M melanoma
[60] = test system: BT-549 breast
[61] = test system: HS 578T breast
[62] = test system: MDA-MB-231 breast
[63] = test system: NCI/ADR-RES ovarian
[64] = test system: T-47D breast
[65] = test system: PC-3 prostate
[66] = test system: OVCAR-3 ovarian

Cc1nc2c(s/c(=N\N)n2-c2ccccc2)c(=O)n1C
TGI [1]: > 100 µM | TGI [2]: > 100 µM | TGI [3]: > 100 µM | TGI [4]: > 100 µM | TGI [5]: > 100 µM | TGI [6]: > 100 µM | TGI [7]: > 100 µM | TGI [8]: > 100 µM | TGI [9]: > 100 µM | TGI [10]: > 100 µM | TGI [11]: > 100 µM | TGI [12]: > 100 µM | TGI [13]: > 100 µM | TGI [14]: > 100 µM | TGI [15]: > 100 µM | TGI [16]: > 100 µM | TGI [17]: > 100 µM | TGI [18]: > 100 µM | TGI [19]: > 100 µM | TGI [20]: > 100 µM | TGI [21]: > 100 µM | TGI [22]: > 100 µM | TGI [23]: > 100 µM | TGI [24]: > 100 µM | TGI [25]: > 100 µM | TGI [26]: > 100 µM | TGI [27]: > 100 µM | TGI [28]: > 100 µM | TGI [29]: > 100 µM | TGI [30]: > 100 µM | TGI [31]: > 100 µM | TGI [32]: > 100 µM | TGI [33]: > 100 µM | TGI [34]: > 100 µM | TGI [35]: > 100 µM | TGI [36]: > 100 µM | TGI [37]: > 100 µM | TGI [38]: > 100 µM | TGI [39]: > 100 µM | TGI [40]: > 100 µM | TGI [41]: > 100 µM | TGI [42]: > 100 µM | TGI [43]: > 100 µM | TGI [44]: > 100 µM | TGI [45]: > 100 µM | TGI [46]: > 100 µM | TGI [47]: > 100 µM | TGI [48]: > 100 µM | TGI [49]: > 100 µM | TGI [50]: > 100 µM | TGI [51]: > 100 µM | TGI [52]: > 100 µM | TGI [53]: > 100 µM

CC1(C)N=C(N)N=C(N)N1CCCCc1ccccc1
TGI [2]: > 100 µM | TGI [3]: > 100 µM | TGI [54]: > 100 µM | TGI [5]: 97.5 µM | TGI [55]: > 100 µM | TGI [56]: > 100 µM | TGI [6]: 12.5 µM | TGI [7]: > 100 µM | TGI [9]: 32.4 µM | TGI [10]: > 100 µM | TGI [57]: > 100 µM | TGI [58]: > 100 µM | TGI [11]: > 100 µM | TGI [12]: > 100 µM | TGI [13]: > 51.6 µM | TGI [14]: > 100 µM | TGI [59]: 83.4 µM | TGI [15]: > 100 µM | TGI [16]: > 100 µM | TGI [17]: > 100 µM | TGI [18]: > 100 µM | TGI [19]: > 100 µM | TGI [60]: > 100 µM | TGI [20]: > 100 µM | TGI [21]: > 100 µM | TGI [22]: > 93.9 µM | TGI [23]: > 100 µM | TGI [24]: > 100 µM | TGI [25]: > 100 µM | TGI [27]: > 100 µM | TGI [28]: > 100 µM | TGI [29]: 37.4 µM | TGI [61]: > 81.9 µM | TGI [30]: > 62.6 µM | TGI [31]: > 100 µM | TGI [32]: > 91.6 µM | TGI [33]: > 100 µM | TGI [62]: > 100 µM | TGI [34]: > 100 µM | TGI [63]: > 100 µM | TGI [35]: 97.6 µM | TGI [36]: > 100 µM | TGI [64]: > 78.1 µM | TGI [37]: > 100 µM | TGI [39]: > 100 µM | TGI [40]: > 100 µM | TGI [41]: > 100 µM | TGI [43]: > 83 µM | TGI [44]: > 51 µM | TGI [45]: > 100 µM | TGI [46]: > 31.1 µM | TGI [47]: > 100 µM | TGI [65]: > 77 µM | TGI [66]: > 36.8 µM | TGI [48]: > 54.4 µM | TGI [49]: > 75.9 µM | TGI [51]: > 100 µM | TGI [52]: > 100 µM | TGI [53]: > 100 µM
